Data on 33 molecules can be found in patent US20120122848A1, “(+)-3-HYDROXYMORPHINAN DERIVATIVES AS NEUROPROTECTANTS” (GREEN CROSS CORPORATION, priority 2009, published 2012).

The nature of data set [1]: Total antioxidant activity assay (TEAC; metmyoglobin, 2,2′-azinobis(3-ethylbenzoline 6-sulfonate), H2O2). To be noted: 7.5 min at 30° C., absorbance at 734 nm. Here is the method:
Briefly, 1 ml of reaction mixture including 2.5 μM metmyoglobin, 150 μM 2,2′-azinobis(3-ethylbenzoline 6-sulfonate), 75 μM H2O2, and 0.84% sample or Trolox (for standard) in PBS was incubated for 7.5 min at 30° C.; then the absorbance at 734 nm was measured. The data are normalized to 1 mM Trolox (TEAC activity) [Kumiko I. et al., The Activation of Dopamine D4 Receptors Inhibits Oxidative Stress-Induced Nerve Cell Death., J. Neurosci., 2001]. The EC50 values were analyzed statistically using Prizm® (GraphPad Software Inc., San Diego, Calif., USA).

Data set [2] deals with HT22 cells (mouse hippocampal neuron). Kind of data set: Cell cytotoxicity test: protection of HT22 cells against glutamate toxicity (EC50) and cytotoxicity of the compounds (CC50), MTT. In kind it is cell-based. Conditions: Mus musculus, HT-22, five millimolar glutamate, 24 hrs, read-out: EC50 (neuroprotective effect against glutamate toxicity). The method, boiled down:
(§1)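 Cells plated 16 hrs, then exposed to 5 mM glutamate plus a compound concentration series for 24 hrs in DMEM with 10% FBS. Viability by MTT (4 hrs), absorbance at 450 nm; EC50 is protection against glutamate toxicity, CC50 is compound cytotoxicity.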

Assay in data set [3]: as above
It is filed as cell-based, mouse. Conditions: mouse, HT22 cells (mouse hippocampal neuron). The method in brief: as §1

pEC50: −log10 of the molar value. Counter-ions that a name gives are not always drawn.

One may read the pEC50 as the EC50 on a negative log10 scale, so that one unit is a factor of ten. As for `Cc1c(C)c2c(c(C)c1O)CCC(C)(C(=O)O)O2` (centres unmarked) [Trolox], the pEC50 in data set [1] is 4.32.

As a reminder, the CC50 is the concentration at which the toxic effect on the cells reaches its halfway point. Read a low CC50 as greater toxicity to the cells. As to `CCc1ccccc1Nc1cc2c(cc1O)[C@]13CCCC[C@@H]1[C@H](C2)NCC3` [Example 49, (+)-2-(2-Ethylphenylamino)-3-hydroxymorphinan TFA salt], in data set [2], the negative-log EC50 (pEC50) was 7.48. The molecule also returned a CC50 at 24 h in data set [3] of 1.1 µM. On to `OCCNc1cc2c(cc1O)[C@]13CCCC[C@@H]1[C@H](C2)NCC3` [Example 100, (+)-3-Hydroxy-2-(2-hydroxyethylamino)morphinan TFA salt], for which the negative-log EC50 (pEC50) in data set [2] was 4.93. This molecule showed a CC50 at 24 h in data set [3] greater than 100 µM. For `Oc1cc2c(cc1Sc1ccccc1)C[C@@H]1NCC[C@]23CCCC[C@H]13` [Example 73, (+)-3-Hydroxy-2-phenylthiomorphinan TFA salt], in data set [2], the negative-log EC50 (pEC50) is 5.78. In addition, the 50% cytotoxic concentration (CC50) at 24 h in data set [3] turned out to be 5.57 µM. On to `CCc1ccc(Nc2cc3c(cc2O)[C@]24CCCC[C@@H]2[C@H](C3)NCC4)cc1` [Example 53, (+)-2-(4-Ethylphenylamino)-3-hydroxymorphinan TFA salt], for which, in data set [2], the negative logarithm of the EC50 (pEC50) is 7.40. In data set [3], this molecule showed a 50% cytotoxic concentration (CC50) at 24 h of 1.6 µM. On the same counts, the results for `Oc1cc2c(cc1NC1CCCCC1)C[C@@H]1NCC[C@]23CCCC[C@H]13` [Example 93, (+)-2-Cyclohexylamino-3-hydroxymorphinan TFA salt] are 7.01 and 13.8 µM. With `Oc1ccc(F)cc1Nc1cc2c(cc1O)[C@]13CCCC[C@@H]1[C@H](C2)NCC3` [Example 56, (+)-2-(5-Fluoro-2-hydroxyphenylamino)-3-hydroxymorphinan TFA salt], in data set [2], the negative logarithm of the EC50 (pEC50) was 6.45. In data set [3], this molecule came in with a half-maximal cytotoxic concentration (CC50) at 24 h of 12.6 µM. As to `CC(C)(C)c1cc2c(cc1O)[C@]13CCCC[C@@H]1[C@H](C2)NCC3` [Example 104, (+)-2-tert-Butyl-3-hydroxymorphinan TFA salt], in data set [2], the pEC50 was 5.86. For the same molecule, the CC50 at 24 h in data set [3] stood at 10 µM. Consider `CS(=O)(=O)Nc1ccccc1Nc1c(O)cc2c(c1Cl)C[C@@H]1NCC[C@]23CCCC[C@H]13` [Example 133, (+)-1-Chloro-3-hydroxy-2-(2-(methanesulfonamido)phenylamino)morphinan TFA salt], for which the negative-log EC50 (pEC50) in data set [2] was 6.59. This molecule also gave a CC50 at 24 h in data set [3] of 16.5 µM. Turning to `Oc1cc2c(cc1Nc1cccc(F)c1)C[C@@H]1NCC[C@]23CCCC[C@H]13` [Example 39, (+)-2-(3-Fluorophenylamino)-3-hydroxymorphinan TFA salt], the pEC50 in data set [2] is 6.84. The same molecule had a CC50 at 24 h in data set [3] of 13.8 µM.

Turning to `CC(C)COC(=O)Nc1ccccc1Nc1cc2c(cc1O)[C@]13CCCC[C@@H]1[C@H](C2)NCC3` [Example 119, (+)-3-Hydroxy-2-(2-(isobutyloxycarbonylamino)phenylamino)morphinan TFA salt], the negative logarithm of the EC50 (pEC50) in data set [2] was 6.68. This molecule also yielded a CC50 at 24 h in data set [3] of 8.7 µM. Regarding `Oc1cc2c(cc1NC1CCCCCC1)C[C@@H]1NCC[C@]23CCCC[C@H]13` [Example 94, (+)-2-Cycloheptylamino-3-hydroxymorphinan TFA salt], the pEC50 in data set [2] was 6.99. In data set [3], this molecule showed a half-maximal cytotoxic concentration (CC50) at 24 h of 7.55 µM.

On to `Oc1cc2c(cc1Nc1ccccc1C(F)(F)F)C[C@@H]1NCC[C@]23CCCC[C@H]13` [Example 52, (+)-3-Hydroxy-2-(2-(trifluoromethyl)phenylamino)morphinan TFA salt], for which the negative logarithm of the EC50 (pEC50) in data set [2] is 7.60. Half-maximal cytotoxicity in data set [3] (CC50 at 24 h) was put at 1.5 µM.

In the case of `COc1ccc(Nc2cc3c(cc2O)[C@]24CCCC[C@@H]2[C@H](C3)NCC4)c(OC)c1` [Example 40, (+)-2-(2,4-Dimethoxyphenylamino)-3-hydroxymorphinan TFA salt], the negative logarithm of the EC50 (pEC50) in data set [2] is 7.48. In data set [3], this molecule showed a CC50 at 24 h of 7.2 µM. In the case of `Oc1cc2c(cc1Nc1ccc3c(c1)OCO3)C[C@@H]1NCC[C@]23CCCC[C@H]13` [Example 36, (+)-3-Hydroxy-2-((3,4-methylendioxy)phenylamino)morphinan TFA salt], the negative-log EC50 (pEC50) in data set [2] was 6.52. In data set [3], this molecule returned a half-maximal cytotoxic concentration (CC50) at 24 h of 84.5 µM. On the same counts, the results for `O=C(O)c1ccccc1Nc1cc2c(cc1O)[C@]13CCCC[C@@H]1[C@H](C2)NCC3` [Example 109, (+)-2-(2-Carboxyphenylamino)-3-hydroxymorphinan TFA salt] are 4.85 and greater than 100 µM.

`COc1ccc(Nc2cc3c(cc2O)[C@]24CCCC[C@@H]2[C@H](C3)NCC4)cc1` [Example 31, (+)-3-Hydroxy-2-(4-methoxyphenylamino)morphinan TFA salt]: the pEC50 in data set [2] was 7.39. The same molecule showed a CC50 at 24 h in data set [3] of 7.5 µM. For the molecule `NC(=O)c1ccccc1Nc1cc2c(cc1O)[C@]13CCCC[C@@H]1[C@H](C2)NCC3` [Example 61, (+)-2-(2-Carbamoylphenylamino)-3-hydroxymorphinan TFA salt], in data set [2], the pEC50 is 5.75. This molecule also returned a cytotoxic concentration (CC50) at 24 h in data set [3] of 50 µM.

Consider `CS(=O)(=O)Nc1ccccc1Nc1cc2c(cc1O)[C@]13CCCC[C@@H]1[C@H](C2)NCC3` [Example 110, (+)-3-Hydroxy-2-(2-(methanesulfonamido)phenylamino)morphinan TFA salt], for which, in data set [2], the pEC50 was 8.34. The CC50 at 24 h in data set [3] was determined as 7.55 µM. Regarding `O=S(=O)(Nc1ccccc1Nc1cc2c(cc1O)[C@]13CCCC[C@@H]1[C@H](C2)NCC3)c1ccccc1` [Example 113, (+)-2-(2-(Benzenesulfonamido)phenylamino)-3-hydroxymorphinan TFA salt], the pEC50 in data set [2] is 7.57. In addition, the CC50 at 24 h in data set [3] was 3.01 µM. Take `Oc1cc2c(cc1Nc1ccc3c(c1)OCCO3)C[C@@H]1NCC[C@]23CCCC[C@H]13` [Example 37, (+)-2((3,4-Ethylenedioxy)phenylamino)-3-hydroxymorphinan TFA salt]: the pEC50 in data set [2] was 6.85. For the same molecule, half-maximal cytotoxicity in data set [3] (CC50 at 24 h) was put at 14.2 µM. Consider `CCN(C)c1cc2c(cc1O)[C@]13CCCC[C@@H]1[C@H](C2)NCC3` [Example 103, (+)-2-(Ethylmethylamino)-3-hydroxymorphinan TFA salt], for which the negative logarithm of the EC50 (pEC50) in data set [2] was 5.80. Besides, in data set [3], the CC50 at 24 h is greater than 100 µM.

Take `CC(C)(C)c1ccccc1Nc1cc2c(cc1O)[C@]13CCCC[C@@H]1[C@H](C2)NCC3` [Example 51, (+)-2-(2-t-Butylphenylamino)-3-hydroxymorphinan TFA salt]: in data set [2], the negative-log EC50 (pEC50) was 7.44. Besides, the CC50 at 24 h in data set [3] amounted to 1.4 µM. Consider `N#Cc1cccc(-c2cc3c(cc2O)[C@]24CCCC[C@@H]2[C@H](C3)NCC4)c1` [Example 78, (+)-2-(3-Cyanophenyl)-3-hydroxymorphinan TFA salt], for which the pEC50 in data set [2] was 5.34. Further, the 50% cytotoxic concentration (CC50) at 24 h in data set [3] was found to be 21 µM.

On to `Oc1cc2c(cc1-c1ccc(F)cc1)C[C@@H]1NCC[C@]23CCCC[C@H]13` [Example 77, (+)-2-(4-Fluorophenyl)-3-hydroxymorphinan TFA salt], for which, in data set [2], the pEC50 was 5.51. The molecule also showed a CC50 at 24 h in data set [3] of 8.3 µM. Turning to `CCCNc1cc2c(cc1O)[C@]13CCCC[C@@H]1[C@H](C2)NCC3` [Example 88, (+)-3-Hydroxy-2-propylaminomorphinan TFA salt], the pEC50 in data set [2] is 7.38. The same molecule returned a half-maximal cytotoxic concentration (CC50) at 24 h in data set [3] of 37.2 µM. For the molecule `Oc1cc2c(cc1Nc1ccccn1)C[C@@H]1NCC[C@]23CCCC[C@H]13` [Example 34, (+)-3-Hydroxy-2-(pyridin-2-ylamino)morphinan 2TFA salt], the pEC50 in data set [2] is 5.63. Further, half-maximal cytotoxicity in data set [3] (CC50 at 24 h) was put at 41.5 µM. Taken in the same sequence, the figures for `CCNc1cc2c(cc1O)[C@]13CCCC[C@@H]1[C@H](C2)NCC3` [Example 23, (+)-2-Ethylamino-3-hydroxymorphinan TFA salt] were 5.96 and 49.1 µM. For the molecule `CCCc1cc2c(cc1O)[C@]13CCCC[C@@H]1[C@H](C2)NCC3` [Example 82, (+)-3-Hydroxy-2-propylmorphinan TFA salt], in data set [2], the pEC50 is 5.99. In data set [3], this molecule returned a CC50 at 24 h of 28.2 µM. For the molecule `CCCN(C)c1cc2c(cc1O)[C@]13CCCC[C@@H]1[C@H](C2)NCC3` [Example 102, (+)-3-Hydroxy-2-(methylpropylamino)morphinan TFA salt], in data set [2], the pEC50 is 6.26. This molecule came in with a 50% cytotoxic concentration (CC50) at 24 h in data set [3] of 29.6 µM. In the case of `Oc1cc2c(cc1NCCC(F)(F)F)C[C@@H]1NCC[C@]23CCCC[C@H]13` [Example 97, (+)-3-Hydroxy-2-(3-trifluoropropylamino)morphinan TFA salt], in data set [2], the pEC50 is 6.74. In addition, it took 67 µM to reach half-maximal cytotoxicity in data set [3] (CC50 at 24 h). As for `CN(c1cc2c(cc1O)[C@]13CCCC[C@@H]1[C@H](C2)NCC3)c1ccccc1NS(C)(=O)=O` [Example 125, (+)-3-Hydroxy-2-(2-(methanesulfonamido)phenyl(methyl)amino)morphinan TFA salt], in data set [2], the pEC50 was 4.96. The CC50 at 24 h in data set [3] worked out at 45.9 µM. On to `Oc1cc2c(cc1N1CCCCC1)C[C@@H]1NCC[C@]23CCCC[C@H]13` [Example 21, (+)-3-Hydroxy-2-(piperidin-1-yl)morphinan TFA salt], for which, in data set [2], the pEC50 was 6.32. In data set [3], it took 63.5 µM to reach half-maximal cytotoxicity (CC50 at 24 h).
